Measurements reported in paper PMC4610166, “Structural and Functional Characterization of Recombinant Isoforms of the Lentil Lipid Transfer Protein” (Acta Naturae, 2015).

Columns and labels:
Experiment in all cases: TNS fluorescence displacement (ex […] nm, em […] nm)
Assay type in all cases: binding
Lc-LTP1 = target: T1, Lc-LTP1 (Lens culinaris, UniProt A0AT28); conditions: refolded protein 2.5 uM; 3 uM TNS, 65 uM stearic acid; 175 mM D-mannitol, 0.5 mM K2SO4, 0.5 mM CaCl2, 5 mM MES pH 7.0, 25 C; competition with TNS
T1 construct: mature protein, 93 residues; expressed in E. coli BL21(DE3) as His8-TrxL fusion, tag cut off with CNBr; four disulfides; monomer and dimer on SDS-PAGE

Lc-LTP3 = target: T2, Lc-LTP3 (Lens culinaris, UniProt A0AT30); conditions: protein 2.5 uM; 3 uM TNS, 65 uM stearic acid; 175 mM D-mannitol, 0.5 mM K2SO4, 0.5 mM CaCl2, 5 mM MES pH 7.0, 25 C; competition with TNS
T2 construct: mature protein, 93 residues; expressed in E. coli BL21(DE3) as His8-TrxL fusion, tag cut off with CNBr; from soluble fraction; four disulfides; monomer and dimer on SDS-PAGE

Lc-LTP2 = target: T3, Lc-LTP2 (Lens culinaris, UniProt A0AT29); conditions: protein 2.5 uM; 3 uM TNS, 65 uM stearic acid; 175 mM D-mannitol, 0.5 mM K2SO4, 0.5 mM CaCl2, 5 mM MES pH 7.0, 25 C; competition with TNS
T3 sequence (A0AT29 26-118): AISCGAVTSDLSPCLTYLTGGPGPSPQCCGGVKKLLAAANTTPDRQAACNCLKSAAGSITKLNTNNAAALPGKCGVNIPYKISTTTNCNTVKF

T2 sequence (A0AT30 26-118): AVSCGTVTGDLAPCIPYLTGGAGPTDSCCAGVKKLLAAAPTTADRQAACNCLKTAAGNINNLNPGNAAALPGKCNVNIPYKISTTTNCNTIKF
T1 sequence (A0AT28 26-118): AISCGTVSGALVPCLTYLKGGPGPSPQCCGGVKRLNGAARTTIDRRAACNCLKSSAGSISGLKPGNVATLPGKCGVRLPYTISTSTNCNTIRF

## CCCCCCCCCCCCCCCCCC(=O)O [stearic acid]
Lc-LTP1
  % fluorescence intensity of the protein-TNS complex: all three isoforms possess the ability to bind fatty acids
Lc-LTP3
  % fluorescence intensity of the protein-TNS complex: all three isoforms possess the ability to bind fatty acids
Lc-LTP2
  % fluorescence intensity of the protein-TNS complex: all three isoforms possess the ability to bind fatty acids
